Assay results as given in PubChem BioAssay AID1845216 (Molecular Pharmacology Branch, DTP, NCI, 2023).

System: SW 982 tumor spheroid viability
Assay: Anticancer human tumor SW 982 cell line growth inhibition;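 also: spheroids exposed to compound for 7 days before readout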
Settings: spheroids with HUVEC and MSC; for IC50: curve of first compound; for viability, T/C: stronger effect = lower value
Method in brief: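 Complex tumor spheroids combined malignant cells with endothelial cells and mesenchymal stem cells. DNA-damaging drugs and DNA repair inhibitors were tested alone and in combination, at half-log dilutions down from clinical Cmax (top 10 microM if Cmax unknown), 0.25% DMSO final.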

With `Cc1cc(C)c(CNC(=O)c2cc(-c3ccc(CN4CCOCC4)cc3)cc3c2cnn3C2CCCC2)c(=O)[nH]1` + CC[C@@]1(O)C(=O)OCc2c1cc1n(c2=O)Cc2cc3c(CN(C)C)c(O)ccc3nc2-1 as the compound, how does the IC50 (second compound 0.003 µM) read?
The IC50 was greater than 10 µM.

And the IC50 (second compound 0.00949 µM)?
Its IC50 is greater than 10 µM.

And the IC50 (second compound 0.03 µM)?
The IC50 was greater than 10 µM.

What about the IC50 (second compound 0.0949 µM) of the same compound?
The IC50 was greater than 10 µM.

What about the IC50 (second compound 0.3 µM) of the same compound?
The IC50 was 3.03 µM.

And the viability, T/C (second compound 0.003 µM, first compound 0.0316 µM)?
Its viability, T/C is 96.8%.

What about the viability, T/C (second compound 0.003 µM, first compound 0.1 µM) of the same compound?
The viability, T/C was 102%.

And the viability, T/C (second compound 0.003 µM, first compound 0.316 µM)?
Its viability, T/C is 103%.

And the viability, T/C (second compound 0.003 µM, first compound 1 µM)?
Its viability, T/C is 90.4%.

And the viability, T/C (second compound 0.003 µM, first compound 3.16 µM)?
The viability, T/C was 85.9%.

And the viability, T/C (second compound 0.003 µM, first compound 10 µM)?
The viability, T/C was 61.6%.

And the viability, T/C (second compound 0.00949 µM, first compound 0.0316 µM)?
The viability, T/C was 96.1%.

And the viability, T/C (second compound 0.00949 µM, first compound 0.1 µM)?
Its viability, T/C is 86.6%.

And the viability, T/C (second compound 0.00949 µM, first compound 0.316 µM)?
Its viability, T/C is 86.5%.

What about the viability, T/C (second compound 0.00949 µM, first compound 1 µM) of the same compound?
Its viability, T/C is 85%.

What about the viability, T/C (second compound 0.00949 µM, first compound 3.16 µM) of the same compound?
The viability, T/C was 83%.

And the viability, T/C (second compound 0.00949 µM, first compound 10 µM)?
Its viability, T/C is 63.3%.

And the viability, T/C (second compound 0.03 µM, first compound 0.0316 µM)?
The viability, T/C was 97%.

And the viability, T/C (second compound 0.03 µM, first compound 0.1 µM)?
The viability, T/C was 88.7%.

What about the viability, T/C (second compound 0.03 µM, first compound 0.316 µM) of the same compound?
Its viability, T/C is 101%.

What about the viability, T/C (second compound 0.03 µM, first compound 1 µM) of the same compound?
Its viability, T/C is 83.4%.

What about the viability, T/C (second compound 0.03 µM, first compound 3.16 µM) of the same compound?
Its viability, T/C is 86.2%.

What about the viability, T/C (second compound 0.03 µM, first compound 10 µM) of the same compound?
Its viability, T/C is 62.9%.

And the viability, T/C (second compound 0.0949 µM, first compound 0.0316 µM)?
Its viability, T/C is 87.7%.

What about the viability, T/C (second compound 0.0949 µM, first compound 0.1 µM) of the same compound?
The viability, T/C was 87.4%.

And the viability, T/C (second compound 0.0949 µM, first compound 0.316 µM)?
The viability, T/C was 85.2%.

What about the viability, T/C (second compound 0.0949 µM, first compound 1 µM) of the same compound?
The viability, T/C was 89.6%.

And the viability, T/C (second compound 0.0949 µM, first compound 3.16 µM)?
Its viability, T/C is 75.6%.

And the viability, T/C (second compound 0.0949 µM, first compound 10 µM)?
Its viability, T/C is 61.7%.

And the viability, T/C (second compound 0.3 µM, first compound 0.0316 µM)?
The viability, T/C was 63.7%.

What about the viability, T/C (second compound 0.3 µM, first compound 0.1 µM) of the same compound?
The viability, T/C was 57.3%.

And the viability, T/C (second compound 0.3 µM, first compound 0.316 µM)?
Its viability, T/C is 54.7%.

What about the viability, T/C (second compound 0.3 µM, first compound 1 µM) of the same compound?
The viability, T/C was 55%.

And the viability, T/C (second compound 0.3 µM, first compound 3.16 µM)?
Its viability, T/C is 52.3%.

What about the viability, T/C (second compound 0.3 µM, first compound 10 µM) of the same compound?
The viability, T/C was 39%.

`O=C(c1cc(Cc2n[nH]c(=O)c3ccccc23)ccc1F)N1CCN(C(=O)C2CC2)CC1` + Cn1nnc2c(C(N)=O)ncn2c1=O was tested. Which IC50 (second compound 1 µM) did it give?
The IC50 was 21.4 µM.

What about the IC50 (second compound 3.16 µM) of the same compound?
Its IC50 is 21.8 µM.

And the IC50 (second compound 10 µM)?
The IC50 was 16.3 µM.

What about the IC50 (second compound 31.6 µM) of the same compound?
Its IC50 is 4.55 µM.

What about the IC50 (second compound 100 µM) of the same compound?
The IC50 was 0.863 µM.

And the viability, T/C (second compound 1 µM, first compound 0.0949 µM)?
The viability, T/C was 93.2%.

What about the viability, T/C (second compound 1 µM, first compound 0.3 µM) of the same compound?
The viability, T/C was 95%.

And the viability, T/C (second compound 1 µM, first compound 0.949 µM)?
Its viability, T/C is 96.9%.

What about the viability, T/C (second compound 1 µM, first compound 3 µM) of the same compound?
Its viability, T/C is 78.3%.

And the viability, T/C (second compound 1 µM, first compound 9.49 µM)?
Its viability, T/C is 66.5%.

And the viability, T/C (second compound 1 µM, first compound 30 µM)?
The viability, T/C was 43.5%.

What about the viability, T/C (second compound 3.16 µM, first compound 0.0949 µM) of the same compound?
Its viability, T/C is 93.7%.

What about the viability, T/C (second compound 3.16 µM, first compound 0.3 µM) of the same compound?
The viability, T/C was 93.8%.

And the viability, T/C (second compound 3.16 µM, first compound 0.949 µM)?
The viability, T/C was 81.3%.

And the viability, T/C (second compound 3.16 µM, first compound 3 µM)?
The viability, T/C was 73.6%.

And the viability, T/C (second compound 3.16 µM, first compound 9.49 µM)?
Its viability, T/C is 59.7%.

And the viability, T/C (second compound 3.16 µM, first compound 30 µM)?
The viability, T/C was 46.4%.

What about the viability, T/C (second compound 10 µM, first compound 0.0949 µM) of the same compound?
The viability, T/C was 75.7%.

And the viability, T/C (second compound 10 µM, first compound 0.3 µM)?
The viability, T/C was 70.7%.

And the viability, T/C (second compound 10 µM, first compound 0.949 µM)?
The viability, T/C was 68%.

And the viability, T/C (second compound 10 µM, first compound 3 µM)?
The viability, T/C was 67.6%.

And the viability, T/C (second compound 10 µM, first compound 9.49 µM)?
Its viability, T/C is 57.3%.

What about the viability, T/C (second compound 10 µM, first compound 30 µM) of the same compound?
The viability, T/C was 41.7%.

And the viability, T/C (second compound 31.6 µM, first compound 0.0949 µM)?
Its viability, T/C is 66.6%.

And the viability, T/C (second compound 31.6 µM, first compound 0.3 µM)?
Its viability, T/C is 64.5%.

And the viability, T/C (second compound 31.6 µM, first compound 0.949 µM)?
The viability, T/C was 54.3%.

And the viability, T/C (second compound 31.6 µM, first compound 3 µM)?
The viability, T/C was 55.7%.

And the viability, T/C (second compound 31.6 µM, first compound 9.49 µM)?
The viability, T/C was 45.2%.

And the viability, T/C (second compound 31.6 µM, first compound 30 µM)?
The viability, T/C was 36%.

And the viability, T/C (second compound 100 µM, first compound 0.0949 µM)?
The viability, T/C was 49.6%.

What about the viability, T/C (second compound 100 µM, first compound 0.3 µM) of the same compound?
Its viability, T/C is 54%.

And the viability, T/C (second compound 100 µM, first compound 0.949 µM)?
Its viability, T/C is 50.7%.

What about the viability, T/C (second compound 100 µM, first compound 3 µM) of the same compound?
The viability, T/C was 41.6%.

And the viability, T/C (second compound 100 µM, first compound 9.49 µM)?
The viability, T/C was 38.3%.

What about the viability, T/C (second compound 100 µM, first compound 30 µM) of the same compound?
The viability, T/C was 33.2%.
